pIC50: −log10 of the molar value.

Among the data in patent publication US8895585B2, “Nicotinamide derivative or salt thereof” (FUJIFILM Corporation, priority 2010, dated 2014) are IC50 values, retold here.

One test deals with T1, glutathione S-transferase (GST)-fused full-length human Syk protein (Homo sapiens, UniProt P43405).
T1 construct: (GST)-fused full-length human Syk protein; GST (glutathione S-transferase); purchased Carna Biosciences
The test is described as follows: Syk enzyme assay. To be noted: Syk enzyme assay, Test Example 1; read-out: IC50 of Syk-inhibitory activity. The format is biochemical. A digest of the protocol: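 IC50 values come from a time-resolved FRET readout (615 and 665 nm) of substrate phosphorylation, measured after an EDTA stop and 1 h antibody binding. The kinase reaction ran 40 min at room temperature with 27 μM ATP and 0.4 μM biotin-peptide, following a 15 min compound preincubation with baculovirus-made GST-full-length human Syk.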
The pIC50 is −log10 of the IC50, conventionally taken in molar units. On to `NC(=O)c1cc(F)c(N[C@H](Cc2ccccc2)C(N)=O)nc1Nc1cnc2ccccc2c1` [Example 012-025], for which the pIC50 was 7.30 to 8.00.
In the case of `CC(C)C[C@@H](Nc1nc(Nc2ccc3ncccc3c2)c(C(N)=O)cc1F)c1nnn[nH]1` [Example 012-026], the pIC50 was 6.00 to 7.00.
Take `NC(=O)c1cc(F)c(NCc2cnn[nH]2)nc1Nc1ccc2ncccc2c1` [Example 012-027]: the pIC50 was 7.00 to 7.30.
Still for that read-out and setting: to `NC(=O)c1cc(F)c(NCc2ncc[nH]2)nc1Nc1ccc2ncccc2c1` [Example 012-028] belongs 6.00 to 7.00.
On to `NC(=O)c1cc(F)c(N[C@H](Cc2ccccc2)c2ncc[nH]2)nc1Nc1ccc2ncccc2c1` [Example 012-029], for which the pIC50 is 6.00 to 7.00.
For `CC(C)C[C@@H](Nc1nc(Nc2ccc3ncccc3c2)c(C(N)=O)cc1F)c1ncc[nH]1` [Example 012-030], the pIC50 is 6.00 to 7.00.
`CC(C)[C@@H](Nc1nc(Nc2ccc3ncccc3c2)c(C(N)=O)cc1F)C(N)=O` [Example 012-032]: the pIC50 is 7.00 to 7.30.
As for `NC(=O)c1cc(F)c(NC(Cc2ccc(F)cc2)C(N)=O)nc1Nc1ccc2ncccc2c1` (stereo not shown) [Example 012-033], the pIC50 was 7.30 to 8.00.
Consider `COc1ccc(C[C@@H](Nc2nc(Nc3ccc4ncccc4c3)c(C(N)=O)cc2F)C(N)=O)cc1` [Example 012-034], for which the pIC50 was 6.00 to 7.00.
As to `NC(=O)c1cc(F)c(N[C@H](Cc2cnc[nH]2)C(N)=O)nc1Nc1ccc2ncccc2c1` [Example 012-035, (R)-6-((1-amino-3-(1H-imidazol-5-yl)-1-oxopropan-2-yl)amino)-5-fluoro-2-((quinolin-6-yl)amino)nicotinamide], the pIC50 is 6.00 to 7.00.
Take `CC(C)(C)[C@@H](Nc1nc(Nc2ccc3ncccc3c2)c(C(N)=O)cc1F)C(N)=O` [Example 012-037]: the pIC50 was 7.00 to 7.30.
`CCC[C@@H](Nc1nc(Nc2ccc3ncccc3c2)c(C(N)=O)cc1F)C(N)=O` [Example 012-038]: the negative-log IC50 (pIC50) is 7.30 to 8.00.
Regarding `NC(=O)c1cc(F)c(NCC(N)Cc2ccccc2)nc1Nc1ccc2ncccc2c1` (stereo not shown) [Example 014-003], the pIC50 was 7.00 to 7.30.
Regarding `CCC(N)CNc1nc(Nc2ccc3ncccc3c2)c(C(N)=O)cc1F` (stereo not shown) [Example 014-004], the pIC50 is 7.30 to 8.00.
Still for that read-out and setting: to `CC(C)(N)CNc1nc(Nc2ccc3ncccc3c2)c(C(N)=O)cc1F` [Example 014-011, 6-((2-amino-2-methylpropyl)amino)-5-fluoro-2-((quinolin-6-yl)amino)nicotinamide] belongs 7.30 to 8.00; to `CC(C)(CN)Nc1nc(Nc2ccc3ncccc3c2)c(C(N)=O)cc1F` [Example 014-012, 6-((1-amino-2-methylpropan-2-yl)amino)-5-fluoro-2-((quinolin-6-yl)amino)nicotinamide], 7.00 to 7.30; to `CC(C)(C)[C@H](N)CNc1nc(Nc2ccc3ncccc3c2)c(C(N)=O)cc1F` [Example 014-015, (S)-6-((2-amino-3,3-dimethylbutyl)amino)-5-fluoro-2-((quinolin-6-yl)amino)nicotinamide], 7.00 to 7.30.
In the case of `NC(=O)c1cc(F)c(NC[C@@H](N)c2cccnc2)nc1Nc1ccc2ncccc2c1` [Example 014-018, (S)-6-((2-amino-2-(pyridin-3-yl)ethyl)amino)-5-fluoro-2-((quinolin-6-yl)amino)nicotinamide], the pIC50 was 7.30 to 8.00.
`NC(=O)c1cc(F)c(NCC2CCCCN2)nc1Nc1ccc2ncccc2c1` (stereo not shown) [Example 014-021]: the pIC50 is 6.00 to 7.00.
With `CCNc1nc(Nc2cc(OC)cc(OC)c2)c(C(N)=O)cc1F` [Example 016-001], the pIC50 is 6.00 to 7.00.
Consider `COc1cc(Nc2nc(NCC(N)=O)c(F)cc2C(N)=O)cc(OC)c1` [Example 016-005], for which the pIC50 was 6.00 to 7.00.
On to `COc1cc(Nc2nc(NCC3CC3)c(F)cc2C(N)=O)cc(OC)c1` [Example 016-008], for which the pIC50 is 6.00 to 7.00.
Regarding `COc1cc(Nc2nc(NC(C(N)=O)c3ccccc3)c(F)cc2C(N)=O)cc(OC)c1` (stereo not shown) [Example 016-009], the pIC50 was 7.30 to 8.00.
Same read-out and setting: to `COc1cc(Nc2nc(NCCc3cnc[nH]3)c(F)cc2C(N)=O)cc(OC)c1` [Example 016-011] belongs 6.00 to 7.00; to `C#CCNc1nc(Nc2cc(OC)cc(OC)c2)c(C(N)=O)cc1F` [Example 016-012], 6.00 to 7.00; to `COc1cc(Nc2nc(NCc3ccccc3N)c(F)cc2C(N)=O)cc(OC)c1` [Example 016-014], 6.00 to 7.00.
With `COc1cc(Nc2nc(NCc3ccc(N)cc3)c(F)cc2C(N)=O)cc(OC)c1` [Example 016-015], the pIC50 was 6.00 to 7.00.
The same measure, in the same setting: to `COc1cc(Nc2nc(NCc3cc4ccccc4[nH]3)c(F)cc2C(N)=O)cc(OC)c1` [Example 016-016] belongs 6.00 to 7.00; to `COc1cc(Nc2nc(N[C@@H](C(N)=O)c3ccccc3)c(F)cc2C(N)=O)cc(OC)c1` [Example 016-017], 7.30 to 8.00.
On to `COc1cc(Nc2nc(N[C@H](C(N)=O)c3ccccc3)c(F)cc2C(N)=O)cc(OC)c1` [Example 016-018], for which the negative logarithm of the IC50 (pIC50) is 6.00 to 7.00.
Take `COc1cc(Nc2nc(Nc3ccncc3)c(F)cc2C(N)=O)cc(OC)c1` [Example 016-020]: the pIC50 is 6.00 to 7.00.
With `COc1cc(Nc2nc(N3CCNC(=O)C3)c(F)cc2C(N)=O)cc(OC)c1` [Example 016-024], the pIC50 was 6.00 to 7.00.
Regarding `COc1cc(Nc2nc(N3CCC(N)C3)c(F)cc2C(N)=O)cc(OC)c1` (stereo not shown) [Example 018-001], the pIC50 was 6.00 to 7.00.
As for `COc1cc(Nc2nc(NCCc3c[nH]c4ccccc34)c(F)cc2C(N)=O)cc(OC)c1` [Example 020-002], the negative-log IC50 (pIC50) was 6.00 to 7.00.
Consider `CNc1nc(Nc2cc(OC)cc(OC)c2)c(C(N)=O)cc1F` [Example 022-008], for which the pIC50 was 6.00 to 7.00.
Take `CS(=O)(=O)Nc1cncc(Nc2nc(NC3CCCCC3N)c(F)cc2C(N)=O)c1` (stereo not shown) [Example 027-006]: the pIC50 is 6.00 to 7.00.
In the case of `NC(=O)c1cc(F)c(NC2CCCCC2N)nc1Nc1cncc(NC(=O)c2ccccc2Cl)c1` (stereo not shown) [Example 027-007], the pIC50 was 7.30 to 8.00.
For `NC(=O)c1cc(F)c(NC2CCCCC2N)nc1Nc1cncc(NC(=O)c2cccc(Cl)c2)c1` (stereo not shown) [Example 027-008], the pIC50 was 7.30 to 8.00.
As for `NC(=O)c1cc(F)c(NC2CCCCC2N)nc1Nc1cncc(NC(=O)c2ccc(Cl)cc2)c1` (stereo not shown) [Example 027-009], the pIC50 is 7.30 to 8.00.
For the molecule `NC(=O)c1cc(F)c(NC2CCCCC2N)nc1Nc1cncc(NC(=O)c2ccc(OC(F)(F)F)cc2)c1` (stereo not shown) [Example 027-016], the pIC50 is 6.00 to 7.00.
Take `NC(=O)c1cc(F)c(NC2CCCCC2N)nc1Nc1cncc(NC(=O)c2ccc(Cl)cc2Cl)c1` (stereo not shown) [Example 027-018]: the pIC50 was 7.00 to 7.30.
As to `COc1ccc(C(=O)Nc2cncc(Nc3nc(NC4CCCCC4N)c(F)cc3C(N)=O)c2)c(OC)c1` (stereo not shown) [Example 027-019], the pIC50 was 7.30 to 8.00.
As for `NC(=O)c1cc(F)c(NC2CCCCC2N)nc1Nc1cncc(NC(=O)c2cccnc2)c1` (stereo not shown) [Example 027-021], the pIC50 is 7.30 to 8.00.

Still in this test, the particulars now being: read-out: Syk-inhibitory activity (IC50).
For the molecule `NC(=O)c1cc(F)c(N[C@H](Cc2ccccc2)C(N)=O)nc1Nc1cnc2ccccc2c1` [Example 12-25], the pIC50 was not below 6.00.
As to `NC(=O)c1cc(F)c(NCc2cnn[nH]2)nc1Nc1ccc2ncccc2c1` [Example 12-27, 5-fluoro-2-(quinolin-6-ylamino)-6-(((1H-1,2,3-triazol-5-yl)methyl)amino)nicotinamide], the pIC50 was not below 6.00.
Turning to `NC(=O)c1cc(F)c(NCc2ncc[nH]2)nc1Nc1ccc2ncccc2c1` [Example 12-28, 5-fluoro-6-(((1H-imidazol-2-yl)methyl)amino)-2-(quinolin-6-ylamino)nicotinamide], the pIC50 was not below 6.00.
The same measure, in the same setting: the value for `CCNc1nc(Nc2cc(OC)cc(OC)c2)c(C(N)=O)cc1F` [Example 15, 2-(3,5-dimethoxyphenylamino)-6-(ethylamino)-5-fluoronicotinamide] was not below 6.00; that for `COc1cc(Nc2nc(NCC3CC3)c(F)cc2C(N)=O)cc(OC)c1` [Example 16-8, 6-((cyclopropylmethyl)amino)-2-((3,5-dimethoxyphenyl)amino)-5-fluoronicotinamide] was not below 6.00.
The same measure, in the same setting: the value for `COc1cc(Nc2nc(NC(C(N)=O)c3ccccc3)c(F)cc2C(N)=O)cc(OC)c1` (stereo not shown) [Example 16-9, 6-((2-amino-2-oxo-1-phenylethyl)amino)-2-((3,5-dimethoxyphenyl)amino)-5-fluoronicotinamide] was not below 6.00.
On to `COc1cc(Nc2nc(N[C@@H](C(N)=O)c3ccccc3)c(F)cc2C(N)=O)cc(OC)c1` [Example 16-17, 6-(((1R)-2-amino-2-oxo-1-phenylethyl)amino)-2-((3,5-dimethoxyphenyl)amino)-5-fluoronicotinamide], for which the pIC50 was not below 6.00.
For the molecule `COc1cc(Nc2nc(N[C@H](C(N)=O)c3ccccc3)c(F)cc2C(N)=O)cc(OC)c1` [Example 16-18, 6-(((1S)-2-amino-2-oxo-1-phenylethyl)amino)-2-((3,5-dimethoxyphenyl)amino)-5-fluoronicotinamide], the pIC50 was not below 6.00.
Regarding `COc1cc(Nc2nc(N3CC[C@@H](N)C3)c(F)cc2C(N)=O)cc(OC)c1` [Example 17, 6-((3R)-3-aminopyrrolidin-1-yl)-2-(3,5-dimethoxyphenylamino)-5-fluoronicotinamide], the pIC50 is not below 6.00.
As to `COc1cc(Nc2nc(NCCc3c[nH]c4ccccc34)c(F)cc2C(N)=O)cc(OC)c1` [Example 19, 2-(3,5-dimethoxyphenylamino)-5-fluoro-6-(2-(1H-indole-3-yl)ethylamino)nicotinamide], the negative logarithm of the IC50 (pIC50) is not below 6.00.
On the same count and under the same terms, the value for `CNc1nc(Nc2cc(OC)cc(OC)c2)c(C(N)=O)cc1F` [Example 23, 2-(3,5-dimethoxyphenylamino)-5-fluoro-6-(methylamino)nicotinamide] was not below 6.00.
Consider `NC(=O)c1cc(F)c(Nc2cccnc2)nc1Nc1cnc2ccccc2c1` [Example 24, 5-fluoro-6-(pyridin-3-ylamino)-2-(quinolin-3-ylamino)nicotinamide], for which the pIC50 is not below 6.00.
